Measured values reported in PubChem BioAssay (NCI).
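Assay format: 96-well plates, 48-hour exposure. The concentration for 50% growth inhibition is given as GI50. At the TGI there is no net growth.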

What was measured:
Assay in all cases: growth of human tumour cells (NCI), 48 h
786-0 renal = system: 786-0 renal
A549 NSCLC = system: A549 NSCLC
ACHN renal = system: ACHN renal
BT-549 breast = system: BT-549 breast
CAKI-1 renal = system: CAKI-1 renal
CCRF-CEM leukemia = system: CCRF-CEM leukemia
COLO 205 colon = system: COLO 205 colon
DU-145 prostate = system: DU-145 prostate
EKVX NSCLC = system: EKVX NSCLC
HCC-2998 colon = system: HCC-2998 colon
HCT-116 colon = system: HCT-116 colon
HCT-15 colon = system: HCT-15 colon
HOP-62 NSCLC = system: HOP-62 NSCLC
HOP-92 NSCLC = system: HOP-92 NSCLC
HS 578T breast = system: HS 578T breast
HT29 colon = system: HT29 colon
IGROV1 ovarian = system: IGROV1 ovarian
K-562 leukemia = system: K-562 leukemia
KM12 colon = system: KM12 colon
LOX IMVI melanoma = system: LOX IMVI melanoma
M14 melanoma = system: M14 melanoma
MALME-3M melanoma = system: MALME-3M melanoma
MCF7 breast = system: MCF7 breast
MDA-MB-231 breast = system: MDA-MB-231 breast
MDA-MB-435 = system: MDA-MB-435
MDA-N = system: MDA-N
MOLT-4 leukemia = system: MOLT-4 leukemia
NCI-H23 lung = system: NCI-H23 lung
NCI-H460 lung = system: NCI-H460 lung
NCI-H522 lung = system: NCI-H522 lung
NCI/ADR-RES ovarian = system: NCI/ADR-RES ovarian
OVCAR-3 ovarian = system: OVCAR-3 ovarian
OVCAR-4 ovarian = system: OVCAR-4 ovarian
OVCAR-5 ovarian = system: OVCAR-5 ovarian
OVCAR-8 ovarian = system: OVCAR-8 ovarian
PC-3 prostate = system: PC-3 prostate
RPMI-8226 leukemia = system: RPMI-8226 leukemia
SF-268 CNS = system: SF-268 CNS
SF-295 CNS = system: SF-295 CNS
SF-539 CNS = system: SF-539 CNS
SK-MEL-2 melanoma = system: SK-MEL-2 melanoma
SK-MEL-28 melanoma = system: SK-MEL-28 melanoma
SK-MEL-5 melanoma = system: SK-MEL-5 melanoma
SK-OV-3 ovarian = system: SK-OV-3 ovarian
SN12C renal = system: SN12C renal
SNB-19 CNS = system: SNB-19 CNS
SNB-75 CNS = system: SNB-75 CNS
SR leukemia = system: SR leukemia
SW-620 colon = system: SW-620 colon
T-47D breast = system: T-47D breast
TK-10 renal = system: TK-10 renal
U251 CNS = system: U251 CNS
UACC-257 melanoma = system: UACC-257 melanoma
UACC-62 melanoma = system: UACC-62 melanoma
UO-31 renal = system: UO-31 renal
HL-60(TB) leukemia = system: HL-60(TB) leukemia
NCI-H226 lung = system: NCI-H226 lung

Cc1cccc(/C=N/NC(=S)Nc2ccc(Cl)cc2)n1
TGI (786-0 renal): 12.1 µM
TGI (A549 NSCLC): 13.6 µM
TGI (ACHN renal): 11.3 µM
TGI (BT-549 breast): 30.4 µM
TGI (CAKI-1 renal): 13.3 µM
TGI (CCRF-CEM leukemia): 42.8 µM
TGI (COLO 205 colon): 17.6 µM
TGI (DU-145 prostate): > 100 µM
TGI (EKVX NSCLC): 23.1 µM
TGI (HCC-2998 colon): 40.3 µM
TGI (HCT-116 colon): 12.9 µM
TGI (HCT-15 colon): 23.1 µM
TGI (HOP-62 NSCLC): 11.9 µM
TGI (HOP-92 NSCLC): 20 µM
TGI (HS 578T breast): 17.5 µM
TGI (HT29 colon): 54.5 µM
TGI (IGROV1 ovarian): 12.7 µM
TGI (K-562 leukemia): > 100 µM
TGI (KM12 colon): 40.8 µM
TGI (LOX IMVI melanoma): 10.7 µM
TGI (M14 melanoma): 7.69 µM
TGI (MALME-3M melanoma): 20.8 µM
TGI (MCF7 breast): 25.9 µM
TGI (MDA-MB-231 breast): 15.8 µM
TGI (MDA-MB-435): 17.5 µM
TGI (MDA-N): 25.5 µM
TGI (MOLT-4 leukemia): 10.9 µM
TGI (NCI-H23 lung): 34.9 µM
TGI (NCI-H460 lung): 15.9 µM
TGI (NCI-H522 lung): 4.93 µM
TGI (NCI/ADR-RES ovarian): 26 µM
TGI (OVCAR-3 ovarian): 61 µM
TGI (OVCAR-4 ovarian): > 100 µM
TGI (OVCAR-5 ovarian): 73.3 µM
TGI (OVCAR-8 ovarian): 33.7 µM
TGI (PC-3 prostate): 26.2 µM
TGI (RPMI-8226 leukemia): > 100 µM
TGI (SF-268 CNS): 17.4 µM
TGI (SF-295 CNS): 14.4 µM
TGI (SF-539 CNS): 12.7 µM
TGI (SK-MEL-2 melanoma): 25.6 µM
TGI (SK-MEL-28 melanoma): 20 µM
TGI (SK-MEL-5 melanoma): 8.97 µM
TGI (SK-OV-3 ovarian): 10.8 µM
TGI (SN12C renal): 34 µM
TGI (SNB-19 CNS): 22.2 µM
TGI (SNB-75 CNS): 16.1 µM
TGI (SR leukemia): > 100 µM
TGI (SW-620 colon): 20 µM
TGI (T-47D breast): > 100 µM
TGI (TK-10 renal): 71.7 µM
TGI (U251 CNS): 13.5 µM
TGI (UACC-257 melanoma): 18.9 µM
TGI (UACC-62 melanoma): 3.68 µM
TGI (UO-31 renal): 12.5 µM

O=c1[nH]cnc2c1ncn2C1CCC(CO)O1 (centres undefined)
TGI (786-0 renal): > 1000 µM
GI50 (A549 NSCLC): > 1000 µM
TGI (A549 NSCLC): > 1000 µM
TGI (ACHN renal): > 1000 µM
TGI (BT-549 breast): > 1000 µM
GI50 (CAKI-1 renal): > 1000 µM
TGI (CAKI-1 renal): > 1000 µM
GI50 (CCRF-CEM leukemia): > 1000 µM
TGI (CCRF-CEM leukemia): > 1000 µM
GI50 (COLO 205 colon): > 1000 µM
TGI (COLO 205 colon): > 1000 µM
TGI (DU-145 prostate): > 1000 µM
GI50 (EKVX NSCLC): > 1000 µM
TGI (EKVX NSCLC): > 1000 µM
GI50 (HCC-2998 colon): > 1000 µM
TGI (HCC-2998 colon): > 1000 µM
GI50 (HCT-116 colon): > 1000 µM
TGI (HCT-116 colon): > 1000 µM
GI50 (HCT-15 colon): > 1000 µM
TGI (HCT-15 colon): > 1000 µM
GI50 (HL-60(TB) leukemia): > 1000 µM
TGI (HL-60(TB) leukemia): > 1000 µM
GI50 (HOP-62 NSCLC): > 1000 µM
TGI (HOP-62 NSCLC): > 1000 µM
GI50 (HOP-92 NSCLC): > 1000 µM
TGI (HOP-92 NSCLC): > 1000 µM
TGI (HS 578T breast): > 1000 µM
GI50 (HT29 colon): > 1000 µM
TGI (HT29 colon): > 1000 µM
GI50 (IGROV1 ovarian): > 1000 µM
TGI (IGROV1 ovarian): > 1000 µM
GI50 (K-562 leukemia): > 1000 µM
TGI (K-562 leukemia): > 1000 µM
GI50 (KM12 colon): > 1000 µM
TGI (KM12 colon): > 1000 µM
GI50 (LOX IMVI melanoma): > 1000 µM
TGI (LOX IMVI melanoma): > 1000 µM
TGI (M14 melanoma): > 1000 µM
GI50 (MALME-3M melanoma): > 1000 µM
TGI (MALME-3M melanoma): > 1000 µM
GI50 (MCF7 breast): > 1000 µM
TGI (MCF7 breast): > 1000 µM
TGI (MDA-MB-231 breast): > 1000 µM
TGI (MDA-MB-435): > 1000 µM
TGI (MDA-N): > 1000 µM
GI50 (MOLT-4 leukemia): > 1000 µM
TGI (MOLT-4 leukemia): > 1000 µM
GI50 (NCI-H226 lung): > 1000 µM
TGI (NCI-H226 lung): > 1000 µM
GI50 (NCI-H23 lung): > 1000 µM
TGI (NCI-H23 lung): > 1000 µM
GI50 (NCI-H522 lung): > 1000 µM
TGI (NCI-H522 lung): > 1000 µM
GI50 (NCI/ADR-RES ovarian): > 1000 µM
TGI (NCI/ADR-RES ovarian): > 1000 µM
GI50 (OVCAR-3 ovarian): > 1000 µM
TGI (OVCAR-3 ovarian): > 1000 µM
GI50 (OVCAR-4 ovarian): > 1000 µM
TGI (OVCAR-4 ovarian): > 1000 µM
GI50 (OVCAR-5 ovarian): > 1000 µM
TGI (OVCAR-5 ovarian): > 1000 µM
GI50 (OVCAR-8 ovarian): > 1000 µM
TGI (OVCAR-8 ovarian): > 1000 µM
TGI (PC-3 prostate): > 1000 µM
GI50 (RPMI-8226 leukemia): > 1000 µM
TGI (RPMI-8226 leukemia): > 1000 µM
GI50 (SK-MEL-2 melanoma): > 1000 µM
TGI (SK-MEL-2 melanoma): > 1000 µM
GI50 (SK-MEL-5 melanoma): > 1000 µM
TGI (SK-MEL-5 melanoma): > 1000 µM
GI50 (SK-OV-3 ovarian): > 1000 µM
TGI (SK-OV-3 ovarian): > 1000 µM
GI50 (SN12C renal): > 1000 µM
TGI (SN12C renal): > 1000 µM
TGI (SR leukemia): > 1000 µM
GI50 (SW-620 colon): > 1000 µM
TGI (SW-620 colon): > 1000 µM
TGI (T-47D breast): > 1000 µM
TGI (TK-10 renal): > 1000 µM
GI50 (UACC-257 melanoma): > 1000 µM
TGI (UACC-257 melanoma): > 1000 µM
GI50 (UACC-62 melanoma): > 1000 µM
TGI (UACC-62 melanoma): > 1000 µM
TGI (UO-31 renal): > 1000 µM
